pEC50: −log10 of the molar value.
Legend:
[1] = system: activated PBMCs; assay: Apoptosis of activated PBMCs, AnnexinV-PI FACS after MLR; assay type: cell-based, human; conditions: 1-day pretreatment, 5 days of MLR
Protocol: Figure 1 AD2900 inhibits human lymphocyte proliferation in allogeneic activation (A, B) The levels of proliferative response of human peripheral blood lymphocytes (PBMCs) after 1-day pretreatment with different concentrations of AD2900, AD2750, YZ138, YZ158, and YZ297 (A) or AD2900, FTY720, and SEW2871 (B) were tested by human allogeneic mixed lymphocyte reaction (MLR) assay, followed by a [3H] thymidine incorporation analysis. (C) Apoptosis of AD2900-treated activated PBMCs was tested by AnnexinV-propidium iodide (PI) FACS analysis following 1-day AD2900 pretreatment and MLR. All the samples were compared to the untreated PBMC control. (D) IFN-γ secretion from activated PBMCs was tested by ELISA following a 1-day AD2900 pretreatment in MLR. On the 5th day of hMLR, supernatants were collected and assayed for the level of IFN-γ. (E) Jurkat cell viability after a 1-day treatment with different concentrations of AD2900, FTY720, and SEW2871 was tested by XTT viability assay. […]
(§1) Human PBLs were collected from human whole blood collected from healthy donors. […] For the thymidine incorporation assay, after 4 days of co-culture, cells were pulsed with ^3H-thymidine at 1 μCi (0.037MBq) per well (PerkinElmer, MA, USA) for 16 additional hours and then harvested onto glass-fiber filters. ^3H-thymidine incorporation was measured using Top Count. […]

[2] = molecular target: S1P1 (Homo sapiens, UniProt P21453); assay: S1P1 agonist test, S1P1 CRE-bla CHO cells; assay type: cell-based; conditions: S1P1 CRE-BLA CHO cell line
Chain of S1P1 (P21453 whole entry): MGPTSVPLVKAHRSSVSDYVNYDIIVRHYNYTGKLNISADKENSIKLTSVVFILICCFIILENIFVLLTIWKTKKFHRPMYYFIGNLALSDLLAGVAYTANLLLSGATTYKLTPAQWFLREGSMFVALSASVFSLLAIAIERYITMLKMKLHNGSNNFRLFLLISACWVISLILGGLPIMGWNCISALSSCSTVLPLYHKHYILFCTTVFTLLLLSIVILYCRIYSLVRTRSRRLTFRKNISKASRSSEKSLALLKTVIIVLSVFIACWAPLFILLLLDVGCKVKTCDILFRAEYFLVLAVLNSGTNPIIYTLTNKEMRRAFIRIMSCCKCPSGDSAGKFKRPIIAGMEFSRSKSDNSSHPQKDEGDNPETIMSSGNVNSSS
Protocol: Since AD2900 is a sphingolipid analogue with properties that resemble those of S1P, we intended to examine its ability to interact with the S1P receptors. To delineate whether AD2900 can function as an agonistic or antagonistic compound to any of the S1P receptors, we used a high-throughput screening cell-based assay, employing cell lines stably transfected with human S1P receptors 1, 2, 3, 4, or 5 [37]. In this experiment, a compound with an IC50 or EC50 value ≤10 μM for a certain S1P receptor is considered active as an antagonist or an agonist, respectively. The results illustrate that AD2900 acts as an antagonist to all S1P receptors (Table 1, Supplementary Figure 3). […] No agonist activation was evident.
The S1P1 agonist test and S1P2, S1P3, S1P4, and S1P5 agonist and antagonist tests were conducted as previously described using S1P1 CRE-bla CHO cells, S1P2 CRE-bla CHO cells, S1P3 NFAT-bla CHO cells, Tango™ S1P4 (EDG6)-bla U-2 OS cells, and Tango™ S1P5 ([…])-bla U-2 OS cells. The S1P1 antagonist assay was carried out according to the manufacturer’s instructions using a Tango™ S1P1 (EDG1)-bla U-2 OS Cell-Based Assay (Invitrogen, NY, USA).

[3] = system: non-activated PBMCs; assay: Proliferation of non-activated PBMCs, [3H] thymidine; assay type: cell-based, human; conditions: different concentrations
[4] = system: TNF-α; assay: TNF-α secretion from activated PBMCs, ELISA; assay type: cell-based, human; conditions: 1-day pretreatment, 5th day of MLR
Protocol: To better characterize the effect of AD2900 on activated PBMCs, the influence of AD2900 on apoptosis and cytokine secretion was tested. After 5 days of MLR, the cells were collected for apoptosis evaluation, while the supernatant was collected for ELISA test. Apoptosis was induced on the activated PBMCs only at higher concentrations of AD2900, above 10 μM (Figure 1C). Therefore, only a small part of the effect of AD2900 on the suppression of lymphocytic proliferation might be attributed to apoptosis. AD2900-induced inhibition of proliferation was accompanied by a reduced level of IFN-γ concentrations in the supernatant (Figure 1D).
as §1, with “donors. Subsequently, the cells were centrifuged on a Ficoll-Paque gradient (Fresenius Kabi Norge AS, Oslo, Norway) and were isolated from the interphase layer. For the human MLR experiment, PBMCs from one healthy donor were pretreated for 1 day with AD2900, AD2730, AD2750, YZ297, YZ158, FTY720, or SEW2871.” for “donors.”

With `CCCCCCCCCCCCCCCCNC(CO)(CO)CO` [AD2900] the “concentrations at which apoptosis was induced on activated PBMCs” value [1] was “above 10 μM”, the pEC50 [2] was < 4.30 and the “influence on the proliferation of non-activated PBMCs” value [3] was “no significant differences”. For the same compound, the “TNF-α concentration in the culture media” value [4] was “not influenced”.

From PMC5581131, “The novel sphingosine-1-phosphate receptors antagonist AD2900 affects lymphocyte activation and inhibits T-cell entry into the lymph nodes” (Oncotarget, 2017)
